Results: patent US20260015360A1 (MOMA Therapeutics, Inc., priority 2023, published 2026)

Legend:
[1] = biological target: T1, biotinylated Avi-POLΘ[2-894] (Homo sapiens, UniProt O75417); test: ATPase assay (ADP-Glo): POLΘ-mediated ATP hydrolysis; conditions: read-out: Biochemical ATPase ADPGlo IC50
T1 construct: 1 nM biotinylated Avi-POLΘ[2-894]

DLD1 BRCA2 (−/−) cells = test: DLD1 viability assay (CellTiter-Glo, 7 days), DLD1 BRCA2 (−/−); format: cell-based; conditions: Homo sapiens, DLD-1, 168 h, read-out: Viability IC50 (μM) DLD1 BRCA2 null
Method: (§1) The seeding densities are pre-determined from the growth curve kinetics performed to ensure log linear phase of cell growth for these 2 cell lines. These assay plates are then placed in the incubator at 37° C., 5% CO2, relative humidity>90% for a few hours before addition of test compounds. Compounds are dispensed using the Tecan HPD300 or Echo based on the plate map in the appropriate wells of the 384-well plates. […] After addition of the test compounds, the plates are incubated at 37° C., 5% CO2, relative humidity>90% for 7 days. CellTiter-Glo (Promega Cat. No. G7573), ATP detection reagent is prepared according to manufacturer's specifications. Cell assay plates are removed from incubator and bring to room temperature (RT) by letting them sit at bench top for at least 15 min. Using the MultiDrop liquid handler or a multichannel pipette, 35 μL/well of CTG is added and the plates are then placed shakes for 5 seconds, RT. These plates are then incubated for 30 minutes in the dark at RT before measuring luminescence using Spectramax/Enspire/Ensight/Envision/PheraSTAR.

DLD1 WT cells = test: DLD1 viability assay (CellTiter-Glo, 7 days), DLD1 WT; format: cell-based; conditions: Homo sapiens, DLD-1, 168 h
Method: as §1

T1 sequence (O75417 2-894 limits assumed): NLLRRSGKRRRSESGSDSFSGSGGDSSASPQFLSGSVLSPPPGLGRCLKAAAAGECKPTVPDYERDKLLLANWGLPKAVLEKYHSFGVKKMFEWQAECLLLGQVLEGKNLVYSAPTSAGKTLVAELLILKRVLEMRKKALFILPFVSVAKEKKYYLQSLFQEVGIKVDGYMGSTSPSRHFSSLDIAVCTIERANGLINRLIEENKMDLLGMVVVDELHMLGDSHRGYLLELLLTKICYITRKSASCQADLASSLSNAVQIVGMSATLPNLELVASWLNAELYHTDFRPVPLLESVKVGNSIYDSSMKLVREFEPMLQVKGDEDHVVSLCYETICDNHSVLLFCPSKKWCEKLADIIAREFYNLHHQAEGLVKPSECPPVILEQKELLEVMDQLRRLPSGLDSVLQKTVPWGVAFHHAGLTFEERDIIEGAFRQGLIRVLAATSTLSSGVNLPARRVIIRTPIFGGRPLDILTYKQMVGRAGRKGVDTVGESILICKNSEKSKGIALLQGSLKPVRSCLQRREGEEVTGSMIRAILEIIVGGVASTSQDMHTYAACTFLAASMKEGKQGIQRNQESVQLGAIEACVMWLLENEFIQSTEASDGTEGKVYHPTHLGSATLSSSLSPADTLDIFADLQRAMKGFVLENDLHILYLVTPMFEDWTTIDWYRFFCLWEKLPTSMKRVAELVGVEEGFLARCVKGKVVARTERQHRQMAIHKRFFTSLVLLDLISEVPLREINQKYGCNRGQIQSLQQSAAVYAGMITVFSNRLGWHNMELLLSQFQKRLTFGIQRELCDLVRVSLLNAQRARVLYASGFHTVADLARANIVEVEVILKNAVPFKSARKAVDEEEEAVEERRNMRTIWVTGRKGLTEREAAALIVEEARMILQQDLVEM

SMILES	IC50 [1] [nM]	IC50 (DLD1 BRCA2 (−/−) cells) [µM]	IC50 (DLD1 WT cells) [µM]
COc1cnc(Cl)cc1-c1cc(C)ncc1C(=O)Nc1nc2ncc(N3CCOC[C@@H]3C(F)(F)F)nc2s1 [Example 414, (R)-2′-chloro-5′-methoxy-6-methyl-N-(6-(3-(trifluoromethyl)morpholino)thiazolo[4,5-b]pyrazin-2-yl)-[4,4′-bipyridine]-3-carboxamide]	15 to 50		
Cc1cc(C2=CCN(C(=O)OC(C)(C)C)CC2)c(C(=O)Nc2nc3ncc(-c4ccncc4)nc3s2)cn1 [Example 139]	150 to 900		
Cc1cc(N2CCN(c3nccs3)CC2)c(C(=O)Nc2nc3ncc(-c4ccncc4)cc3s2)cn1 [Example 159, 6-methyl-N-(6-(pyridin-4-yl)thiazolo[4,5-b]pyridin-2-yl)-4-(4-(thiazol-2-yl)piperazin-1-yl)nicotinamide]	150 to 900		
COc1cnc(Cl)cc1-c1cc(C)ncc1C(=O)Nc1nc2ncc(N3CCO[C@@H](C)[C@H]3C)nc2s1 (single isomer, unassigned) [Example 408, 2′-chloro-N-(6-((2S or R,3R or S)-2,3-dimethylmorpholino)thiazolo [4,5-b]pyrazin-2-yl)-5′-methoxy-6-methyl-[4,4′-bipyridine]-3-carboxamide]	1 to 15		
Cc1cc(N2CCC[C@H](C#N)C2)c(C(=O)Nc2nc3ncc(-c4ccncc4)cc3s2)cn1 (single isomer, unassigned) [Example 143]	150 to 900		
COc1cnc(Cl)cc1-c1cc(C)ncc1C(=O)Nc1nc2ncc(N3C[C@@H](C)OC[C@@H]3C)nc2s1 [Example 419, 2′-chloro-N-(6-((2R,5S)-2,5-dimethylmorpholino)thiazolo [4,5-b]pyrazin-2-yl)-5′-methoxy-6-methyl-[4,4′-bipyridine]-3-carboxamide]	1 to 15		
COc1ccccc1-c1cc(C)ncc1C(=O)Nc1nc2ncc(C(F)(F)F)cc2s1 [Example 116]	15 to 50		
Cc1cc(N2CCC3(CNC(=O)C3)C2)c(C(=O)Nc2nc3ncc(-c4ccncc4)cc3s2)cn1 (racemic) [Example 201]	> 900		
COc1cnc(Cl)cc1-c1cc(C)ncc1C(=O)Nc1nc2ncc(N3[C@H](C)COC[C@H]3C)nc2s1 [Example 423, 2′-chloro-N-(6-((3R,5R)-3,5-dimethylmorpholino)thiazolo [4,5-b]pyrazin-2-yl)-5′-methoxy-6-methyl-[4,4′-bipyridine]-3-carboxamide]	1 to 15		
COc1cnc(Cl)cc1-c1cc(C)ncc1C(=O)Nc1nc2ncc(N3C[C@H](C)OC[C@H]3C)nc2s1 [Example 422, 2′-chloro-N-(6-((2S,5R)-2,5-dimethylmorpholino)thiazolo [4,5-b]pyrazin-2-yl)-5′-methoxy-6-methyl-[4,4′-bipyridine]-3-carboxamide]		0.001 to 0.1	> 10
COc1cnc(Cl)cc1-c1cc(C)ncc1C(=O)Nc1nc2ncc(C3CN(CC(F)(F)F)C3)nc2s1 (single isomer, unassigned) [Example 378, 2′-chloro-5′-methoxy-6-methyl-N-(6-(1-(2,2,2-trifluoroethyl)azetidin-3-yl)thiazolo[4,5-b]pyrazin-2-yl)-[4,4′-bipyridine]-3-carboxamide]		0.001 to 0.1	> 10
COc1ccc(C#N)cc1-c1cc(C)ncc1C(=O)Nc1nc2ncc(C3=CCC(CO)CC3)nc2s1 (centres unmarked) [Example 421, 4-(5-cyano-2-methoxyphenyl)-N-(6-(4-(hydroxymethyl)cyclohex-1-en-1-yl)thiazolo[4,5-b]pyrazin-2-yl)-6-methylnicotinamide]		0.001 to 0.1	> 10
COc1cnc(Cl)cc1-c1cc(C)ncc1C(=O)Nc1nc2ncc(C3CCC(C)(C#N)CC3)nc2s1 (centres unmarked) [Example 410, 2′-chloro-N-(6-(4-cyano-4-methylcyclohexyl)thiazolo[4,5-b]pyrazin-2-yl)-5′-methoxy-6-methyl-[4,4′-bipyridine]-3-carboxamide]		0.001 to 0.1	> 10

The next lines start with the values.

IC50 [1] [nM]	IC50 (DLD1 BRCA2 (−/−) cells) [µM]	IC50 (DLD1 WT cells) [µM]	SMILES
1 to 15			COc1cnc(Cl)cc1-c1cc(C)ncc1C(=O)Nc1nc2ncc(C3CCOC3)cc2s1 (single isomer, unassigned) [Example 516, (S or R)-2′-chloro-5′-methoxy-6-methyl-N-(6-(tetrahydrofuran-3-yl)thiazolo[4,5-b]pyridin-2-yl)-[4,4′-bipyridine]-3-carboxamide]
	0.001 to 0.1	> 10	COc1cnc(Cl)cc1-c1cc(C)ncc1C(=O)Nc1nc2ncc(N3CCC4(CCO4)CC3)nc2s1 [Example 482, N-(6-(1-oxa-7-azaspiro[3.5]nonan-7-yl)thiazolo[4,5-b]pyrazin-2-yl)-2′-chloro-5′-methoxy-6-methyl-[4,4′-bipyridine]-3-carboxamide]
	0.001 to 0.1	> 10	COc1cnc(Cl)cc1-c1cc(C)ncc1C(=O)Nc1nc2ncc(N3CCC(OC4CC4)CC3)nc2s1 [Example 462, 2′-chloro-N-(6-(4-cyclopropoxypiperidin-1-yl)thiazolo[4,5-b]pyrazin-2-yl)-5′-methoxy-6-methyl-[4,4′-bipyridine]-3-carboxamide]
	0.001 to 0.1	> 10	COc1cnc(Cl)cc1-c1cc(C)ncc1C(=O)Nc1nc2ncc(N3CCCCC3)nc2s1 [Example 491, 2′-chloro-5′-methoxy-6-methyl-N-(6-(piperidin-1-yl)thiazolo[4,5-b]pyrazin-2-yl)-[4,4′-bipyridine]-3-carboxamide]
	0.001 to 0.1	> 10	COc1cnc(Cl)cc1-c1cc(C)ncc1C(=O)Nc1nc2ncc(N3CCO[C@H](C(F)(F)F)C3)nc2s1 [Example 430, (S)-2′-chloro-5′-methoxy-6-methyl-N-(6-(2-(trifluoromethyl)morpholino)thiazolo[4,5-b]pyrazin-2-yl)-[4,4′-bipyridine]-3-carboxamide]
	0.001 to 0.1	> 10	COc1cnc(Cl)cc1-c1cc(C)ncc1C(=O)Nc1nc2ncc([C@H]3CCO[C@@H](C)C3)nc2s1 (single isomer, unassigned) [Example 434A, 2′-chloro-5′-methoxy-6-methyl-N-(6-((2S or R,4S or R)-2-methyltetrahydro-2H-pyran-4-yl)thiazolo[4,5-b]pyrazin-2-yl)-[4,4′-bipyridine]-3-carboxamide]
	0.001 to 0.1	> 10	COc1cnc(Cl)cc1-c1cc(C)ncc1C(=O)Nc1nc2ncc(N3CCC(OC)C(F)(F)C3)nc2s1 (single isomer, unassigned) [Example 444, (R or S)-2′-chloro-N-(6-(3,3-difluoro-4-methoxypiperidin-1-yl)thiazolo[4,5-b]pyrazin-2-yl)-5′-methoxy-6-methyl-[4,4′-bipyridine]-3-carboxamide]
	0.1 to 0.25	> 10	COc1cnc(Cl)cc1-c1cc(C)ncc1C(=O)Nc1nc2ncc(N3CCOCC3)nc2s1 [Example 483, 2′-chloro-5′-methoxy-6-methyl-N-(6-morpholinothiazolo[4,5-b]pyrazin-2-yl)-[4,4′-bipyridine]-3-carboxamide]
	0.001 to 0.1	> 10	COc1cnc(Cl)cc1-c1cc(C)ncc1C(=O)Nc1nc2ncc(N3CCO[C@H](C)C3)nc2s1 [Example 488, (R)-2′-chloro-5′-methoxy-6-methyl-N-(6-(2-methylmorpholino)thiazolo[4,5-b]pyrazin-2-yl)-[4,4′-bipyridine]-3-carboxamide]
	0.001 to 0.1	> 10	COc1cnc(Cl)cc1-c1cc(C)ncc1C(=O)Nc1nc2ncc(N3CCC(C(F)F)CC3)nc2s1 [Example 486, 2′-chloro-N-(6-(4-(difluoromethyl)piperidin-1-yl)thiazolo[4,5-b]pyrazin-2-yl)-5′-methoxy-6-methyl-[4,4′-bipyridine]-3-carboxamide]
	0.001 to 0.1	> 10	COc1cnc(Cl)cc1-c1cc(C)ncc1C(=O)Nc1nc2ncc(N3CC[C@H](OC)[C@@H](F)C3)nc2s1 [Example 452, 2′-chloro-N-(6-((3S,4S)-3-fluoro-4-methoxypiperidin-1-yl)thiazolo[4,5-b]pyrazin-2-yl)-5′-methoxy-6-methyl-[4,4′-bipyridine]-3-carboxamide]
	0.001 to 0.1	> 10	COc1cnc(Cl)cc1-c1cc(C)ncc1C(=O)Nc1nc2ncc([C@@H]3CCO[C@@H](C)C3)nc2s1 [Example 433, 2′-chloro-5′-methoxy-6-methyl-N-(6-((2S,4R)-2-methyltetrahydro-2H-pyran-4-yl)thiazolo[4,5-b]pyrazin-2-yl)-[4,4′-bipyridine]-3-carboxamide]
	0.001 to 0.1	> 10	COc1cnc(Cl)cc1-c1cc(C)ncc1C(=O)Nc1nc2ncc([C@H]3CCO[C@H](C)C3)nc2s1 (single isomer, unassigned) [Example 431, 2′-chloro-5′-methoxy-6-methyl-N-(6-((2R or S,4S or R)-2-methyltetrahydro-2H-pyran-4-yl)thiazolo[4,5-b]pyrazin-2-yl)-[4,4′-bipyridine]-3-carboxamide]
	0.001 to 0.1	> 10	COc1cnc(Cl)cc1-c1cc(C)ncc1C(=O)Nc1nc2ncc(N3CCC(C)(O)C(F)C3)nc2s1 (centres unmarked) [Example 465, 2′-chloro-N-(6-(3-fluoro-4-hydroxy-4-methylpiperidin-1-yl)thiazolo[4,5-b]pyrazin-2-yl)-5′-methoxy-6-methyl-[4,4′-bipyridine]-3-carboxamide]
